Where no end group is shown, it is not given here. [ ]: non-standard residue; d: D form.
Assays:
Assay type in all cases: cell-based
[1] = tested on: H929 cells; test: Detection of apoptosis, annexin V staining and FACS, suspension culture; settings: H929 cells, 200 μM ZVAD-FMK 30 minutes prior, apoptosis at 24 hours, annexin/PI
Procedure: (§1) FIG. 17 is a graph showing that HYD1 induces apoptosis as a single agent in 8226 and H929 cells cultured in suspension. 8226 and H929 cells were either treated with varying concentrations of HYD1 or vehicle control (equal volume sterile double distilled water) for 24 hours and apoptotic cells were detected by FACS analysis of annexin V positive cells. HYD1 specific apoptosis equals cell death due to peptide minus any apoptosis detected in control cells.
200 μM ZVAD-FMK was added to H929 cells for 30 minutes prior to the addition of either 75 μg/ml HYD1S or 15 μM Melphalan. Apoptosis was measured 24 hours after drug treatment by annexin/PI staining and apoptotic cells were detected by FACS analysis. Three independent experiments were performed and shown is a representative experiment.
Detection of Apoptosis. […] Blood, 1999; 93:1658-1667). The assay was performed in triplicate and 3 independent experiments were performed. Caspase 3 and 8 activity was measured at 6 and 24 hrs post peptide treatment per manufactures' instructions (BD Biosciences, San Jose, Calif.). The caspase assays were performed in triplicate and repeated twice.
(§2) Myeloma cells were plated at a density of 400,000 cells per ml in a 24 well plate. Cells were treated with the indicated dose of the peptide for 24 hours. Following 24 hrs of peptide exposure, apoptotic cells were detected using Annexin V staining and FACS analysis. Ten thousand events were analyzed by flow cytometry (Becton Dickinson, San Jose, Calif.). Experiments were performed in triplicate and repeated twice. Shown is a representative figure.

[2] = tested on: primary myeloma patient specimens; test: Melphalan-induced cell death in primary myeloma patient specimens, FN-adherent vs suspension
Source text: It has been reported that β1-integrin mediated adhesion of 8226 cells and K562 cells to FN blocked cell death induced by the alkylating agent melphalan (Damiano J S, et al. Blood. 1999; 93:1658-1667; Hazlehurst L A, et al. Cancer Res. 2003; 63:7900-7906). In order to determine whether the CAM-DR phenotype is a potential mechanism of clinical de novo drug resistance, melphalan-induced cell death was recently measured in primary myeloma patient specimens (See FIG. 2). Plasma cells were identified by either positive Kappa or Lambda staining, and apoptotic myeloma cells were identified by the Tunnel assay. 9 out of 10 patient specimens were protected from melphalan induced cell death when adherent to FN compared to suspension cultures.

[3] = tested on: MM1.S cells
Source text: FIGS. 4A-4E are a series of graphs showing that the BMS model protects myeloma MM1.S cells from melphalan (FIG. 4A), mitoxantrone (FIG. 4B), and dexamethasone (FIGS. 4C-4E) induced cell death. SF+A model confers the highest levels of resistance to cell death induced by either mitoxantrone or melphalan.
FIGS. 10A-10E are a series of graphs showing that the BMS model protects MM1.S cells from melphalan (FIG. 10A), mitoxantrone (FIG. 10B), dexamethasone (FIGS. 10C and 10D), and velcade (FIG. 10E) induced cell death.
The CAM-DR phenotype is tested by removing unadhered cells before the addition of drug. […] For this reason, the inventors chose to test for the reversal of drug resistance in adherent cells by using a bone marrow stroma (BMS) model (HS-5 cell line). In the BMS model of drug resistance, cell-cell adhesion is mediated by multiple adhesion moieties and thus the addition of a β1 blocking antibody is not sufficient to block tumor cell adhesion to the BMS cell line. The BMS model system is described in FIGS. 3A-D. These models have facilitated the availability of four discrete hematopoietic tumor populations. The first tumor population (FIG. 3A) is maintained in a traditional suspension culture in RPMI media containing 10% FBS (RM). Conditioned media is prepared by adding fresh RPMI media containing 10% FBS to HS-5 cells which are 75% confluent. After three hours, the media is then collected, centrifuged and stored at −70 for up to one month. This tumor cell culture condition is referred to as CM (FIG. 3B). The third tumor cell population consists of placing HS-5 cells in the bottom chamber and tumor cell in a top chamber that is separated by a membrane allowing for diffusion of soluble factors (see FIG. 3C). This condition is distinct from CM because it considers dynamic soluble interactions between the tumor cell and BMS cells (see FIG. 3D). […] Regardless of the cytotoxic agent used, the levels of drug resistance are greatest for myeloma cells which are adherent to the BMS. […]

[4] = tested on: prostate tumor cell; test: Random haptotaxis (cell migration) on laminin 322 (laminin 5); settings: scrambled peptide HYDS indicates 100% cell migration
Source text: Defining the minimal region of HYD1 necessary to potentiate drug-induced apoptosis in suspension and adherent cultures is of interest. Below is a study to determine the minimal HYD1 sequence required to block prostate tumor cell migration. Similar studies as those outlined below and using the same peptide sequences will be used to determine the minimal amino acid sequence required for potentiation of drug induced apoptosis.
This response to the peptide is independent of disrupting adhesion to laminin 322 (laminin 5) since the cells were grown on a ligand before treatment with the peptide. […] All other alanine-substitution mutants resulted cell migration, i.e., a loss of peptide activity.
Using the negative control scrambled peptide, HYDS (SEQ ID NO:44), to indicate 100% cell migration, several truncated peptides including, ikmviswkg (SEQ ID NO:22), kmviswkg (SEQ ID NO:39), and kikmviswk (SEQ ID NO:37) were effective at blocking cell migration by approximately 50%.

[5] = tested on: ERK; test: Activation of ERK signaling; settings: for activation of ERK: 10 minutes post-treatment
Procedure: HYD1, when introduced as a soluble ligand, completely blocks random hapotaxis on laminin 322 and enhanced cellular signals are coupled with the loss of cell motility. […] Using this endpoint as an indicator of HYD1 bioactivity, the truncated and alanine-substituted variants of HYD1 were tested for their ability to activate ERK. Activation of ERK at 10 minutes post-treatment was conserved with alanine-substitution only at the N-terminal lysine and C-terminal glycine (FIG. 16A-1). […] Taken together (FIG. 16C-2), the results (FIGS. 16A-1, 16A-2, 16B, 16C-1) indicate that activation of ERK signaling required ikmviswxx (SEQ ID NO:48).

[6] = tested on: 8226 cells; test: Detection of apoptosis, annexin V staining and FACS, suspension culture; settings: 24 hours, annexin V
Procedure: as §1
Detection of Apoptosis. A flow cytometric assay measuring Annexin V/PI staining was used to measure apoptotic cells following 24 hours of peptide exposure as previously described (Damiano J S et al. Blood, 1999; 93:1658-1667). The assay was performed in triplicate and 3 independent experiments were performed. Caspase 3 and 8 activity was measured at 6 and 24 hrs post peptide treatment per manufactures' instructions (BD Biosciences, San Jose, Calif.). The caspase assays were performed in triplicate and repeated twice.
as §2

Molecule: N[C@@H](Cc1ccc(N(CCCl)CCCl)cc1)C(=O)O [melphalan]
- protection from induced cell death by pan caspase inhibitor ZVAD-FMK [1]: blocked the majority
- mean percent apoptosis of plasma cells adhered to FN ([2]; 200 μM melphalan, bone marrow aspirates, adhered to FN prior to treatment): 27.7%
- mean percent apoptosis of plasma cells in suspension cultures ([2]; 200 μM melphalan, suspension cultures): 55.6%
- patient specimens protected from melphalan induced cell death when adherent to FN ([2]; compared to suspension cultures, ten patients): 9 out of 10
- resistance to drug induced cell death conferred by HS-5 stromal layer in the BMS model [3]: sufficient to confer resistance

Molecule: O=C1c2c(O)ccc(O)c2C(=O)c2c(NCCNCCO)ccc(NCCNCCO)c21 [mitoxantrone]
- resistance to drug induced cell death conferred by HS-5 stromal layer in the BMS model [3]: sufficient to confer resistance

Molecule: CC(C)C[C@H](NC(=O)[C@H](Cc1ccccc1)NC(=O)c1cnccn1)B(O)O [velcade]
- resistance to drug induced cell death conferred by HS-5 stromal layer in the BMS model [3]: sufficient to confer resistance

Molecule: ikmviswkg (IKMVISWKG; HYD1 fragment)
- blocking cell migration [4]: approximately 50%

Molecule: iswkg (ISWKG; HYD1 fragment)
- activation of ERK [5]: partial activation of ERK

Molecule: kikmv (KIKMV; HYD1 fragment)
- ERK signal of N-terminal region compared with C-terminal region [5]: stronger signal than iswkg
- activation of ERK [5]: partial activation of ERK

Molecule: kikmviswk ([dK][dI][dK][dM][dV][dI][dS][dW][dK]) [HYD1-g, C-terminus glycine deleted]
- blocking cell migration [4]: approximately 50%
- potency in inducing 8226 cell death compared to HYD1 [6]: increased potency
- potency in inducing 8226 cell death compared to HYD1 ([6]; listed as kikmviswk): greater potency

Molecule: kmviswkg (KMVISWKG; HYD1 fragment)
- blocking cell migration [4]: approximately 50%

Source: patent publication US7632814B2, “HYD1 peptides as anti-cancer agents” (University of South Florida, priority 2006, dated 2009)
